Results on one compound are retold here after US7208515B2, “Diphenylmethyl compounds useful as muscarinic receptor antagonists” (Theravance, Inc., priority 2004, dated 2007).

One assay addresses T1, hM3 receptor (CHO cells) (Homo sapiens, UniProt P20309).
T1 construct: expressed in transfected cells
In words: Blockade of agonist-mediated calcium release via FLIPR assay. To be noted: CHO cells stably expressing the hM3 receptor, oxotremorine. The assay is classed as cell-based. The source says: C. Blockade of Agonist-Mediated Calcium Release via FLIPR Assays
Muscarinic receptor subtypes (M1, M3 and M5 receptors), which couple to Gq proteins, activate the phospholipase C (PLC) pathway upon agonist binding to the receptor. As a result, activated PLC hydrolyzes phosphatyl inositol diphosphate (PIP2) to diacylglycerol (DAG) and phosphatidyl-1,4,5-triphosphate (IP3), which in turn generates calcium release from intracellular stores, i.e., endoplasmic and sarcoplasmic reticulum. […] This fluorescence event was measured in real time by the FLIPR, which detected the change in fluorescence from a monolayer of cells cloned with human M1 and M3, and chimpanzee M5 receptors. Antagonist potency was determined by the ability of antagonists to inhibit agonist-mediated increases in intracellular calcium. […]
To determine antagonist potency, the dose-dependent stimulation of intracellular Ca^2+ release for oxotremorine was first determined so that antagonist potency can later be measured against oxotremorine stimulation at an EC90 concentration. […]
The parameters used for the FLIPR were: exposure length of 0.4 seconds, laser strength of 0.5 watts, excitation wavelength of 488 nm, and emission wavelength of 550 nm. Baseline was determined by measuring the change in fluorescence for 10 seconds prior to addition of agonist. […]

The subject of assay [1] is MCh-induced depressor responses. Description: Methacholine-induced depressor responses in conscious guinea pigs. The assay is classed as in vivo. To be noted: guinea pig, inhalation. An excerpt:
Methacholine-Induced Depressor Responses in Conscious Guinea Pigs
Healthy, adult, male Sprague-Dawley guinea pigs (Harlan, Indianapolis, Ind.), weighing between 200 and 300 g were used in these studies. Under isoflurane anesthesia (to effect), animals were instrumented with common carotid artery and jugular vein catheters (PE-50 tubing). The catheters were exteriorized utilizing a subcutaneous tunnel to the subscapular area. All surgical incisions were sutured with 4-0 Ethicon Silk and the catheters locked with heparin (1000 units/mL). Each animal was administered saline (3 mL, SC) at the end of surgery as well as buprenorphine (0.05 mg/kg, IM). Animals were allowed to recover on a heating pad before being returned to their holding rooms.
Approximately 18 to 20 hours following surgery, the animals were weighed and the carotid artery catheter on each animal was connected to a transducer for recording arterial pressure. Arterial pressure and heart rate was recorded using a Biopac MP-100 Acquisition System. Animals were allowed to acclimate and stabilize for a period of 20 minutes.
Each animal was challenged with MCh (0.3 mg/kg, IV) administered through the jugular venous line and the cardiovascular response was monitored for 10 minutes. […] At 1.5 and 24 h post-dosing, the animals were re-challenged with MCh (0.3 mg/kg, IV) and the hemodynamic response was determined. […]

A value given as a limit tells only on which side of the number the result lay.

T1 sequence (P20309 whole entry): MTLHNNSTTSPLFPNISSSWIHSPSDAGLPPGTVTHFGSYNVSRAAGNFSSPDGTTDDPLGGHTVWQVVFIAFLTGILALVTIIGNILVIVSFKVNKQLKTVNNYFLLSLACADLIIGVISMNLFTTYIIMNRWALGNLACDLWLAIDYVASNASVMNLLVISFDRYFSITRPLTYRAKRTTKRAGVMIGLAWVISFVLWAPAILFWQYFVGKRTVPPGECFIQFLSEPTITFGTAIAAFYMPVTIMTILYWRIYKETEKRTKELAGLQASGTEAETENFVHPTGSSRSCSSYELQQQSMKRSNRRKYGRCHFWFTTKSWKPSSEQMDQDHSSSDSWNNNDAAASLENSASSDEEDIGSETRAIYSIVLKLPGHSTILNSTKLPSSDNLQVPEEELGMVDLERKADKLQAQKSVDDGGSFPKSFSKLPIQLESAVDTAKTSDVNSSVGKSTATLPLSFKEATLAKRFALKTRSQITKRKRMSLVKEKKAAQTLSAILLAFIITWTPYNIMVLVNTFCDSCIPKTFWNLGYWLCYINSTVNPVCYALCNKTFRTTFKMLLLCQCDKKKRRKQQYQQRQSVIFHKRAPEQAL

One may read the Ki as the dissociation constant of the complex between target and ligand, obtained from inhibition or displacement. Regarding `CNCC(=O)NCCCCCN1CC[C@@H](C(C(N)=O)(c2ccccc2)c2ccccc2)C1` [Example 1], the Ki at hM3 receptor (CHO cells) was less than 100 nM. Besides, in assay [1], the “apparent lung-selectivity index (ratio of anti-depressor ID50 to bronchoprotective ID50)” value was “greater than 5”.
